Data on 29 compounds can be found in US20170000749A1, “Methods for Treating Cognitive Disorders Using Inhibitors of Histone Deacetylase” (Forum Pharmaceuticals, Inc., priority 2008, published 2017).

For experiment [1], the target named is one or more of HDAC-1, HDAC-2, HDAC-3, HDAC-4, HDAC-5, HDAC-6, HDAC-7, HDAC-8, HDAC-9, HDAC-10 and HDAC-11. Briefly: Inhibition of Histone Deacetylase Enzymatic Activity (Boc-Lys(Ac)-AMC substrate, Fluor-de-Lys developer). The following applies: read-out: HDAC Inhibition (IC50 μM) HDAC Enzyme. Type of experiment: biochemical. On the procedure:
The following protocol is used to assay the compounds of the disclosure.
The mixture is pre-incubated for 5 minutes at room temperature. The reaction is started by bringing the temperature to 37° C. and adding 16 μl substrate. Total reaction volume is 50 μl.
In the Tables 8, 9 and 10, A≦0.05 μM; 0.05 μM<B≦0.1 μM; 0.1 μM<C≦1 μM; and 1 μM<D≦10 μM.

Experiment [2] concerns HDAC activity in primary mouse cortical cultures. Briefly: Whole-Cell Histone Deacetylase (HDAC) Inhibition Assay in Primary Mouse Cortical Cultures. Type of experiment: cell-based. The essentials:
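Primary neocortical neurons from E17 Balb/C mouse embryos were plated at 50000 cells/well and treated at DIV9 with ten-point DMSO dilutions for 16-18 h at 37° C, in triplicate. BOC-Lys(Ac)-AMC substrate was then added for 1 h. Fluor de Lys developer containing 1 uM TSA produced a fluorophore, which was read.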

[3] abbreviates: whole-cell (WC), mouse cortical neurons, Table 10, read-out: HDAC Inhibition (IC50 μM) WC mouse cortical neurons.
Setting [4] is: whole-cell (WC), mouse cortical neurons, Table 8, read-out: HDAC Inhibition (IC50 μM) WC mouse cortical neurons.
The mark [5] stands for this setting: read-out: HDAC Inhibition (IC50 μM) WC mouse cortical neurons, Table 10.

Each structure is given as a SMILES string. Read-outs that look alike come from different tables or passages of the source.

For orientation: IC50 means the point on the concentration scale where inhibition reaches its midpoint. For the compound `O=C(/C=C/c1ccc2c(c1)C=Cc1ccccc1N2CC1CC1)NO` [(E)-3-((Z)-5-(cyclopropylmethyl)-5H-dibenzo[b,f]azepin-2-yl)-N-hydroxyacrylamide], the IC50 in experiment [1] (Table 10) is 0.1 to 1 µM; in experiment [2] (setting [3]), 5 to 15 µM.
For the compound `O=C(NO)c1ccc(CCNC2=Nc3ccccc3Oc3ccccc32)cc1` [(E)-4-(2-(dibenzo[b,f][1,4]oxazepin-11-ylamino)ethyl)-N-hydroxybenzamide], the IC50 in experiment [1] (Table 8) fell in the range of 0.1 to 1 µM; in experiment [2] (setting [4]), 5 to 15 µM.
For `O=C(NO)c1ccc(CNC2=Nc3ccccc3N(C3CC3)c3ccccc32)cc1` [(E)-4-((5-cyclopropyl-5H-dibenzo[b,e][1,4]diazepin-11-ylamino)methyl)-N-hydroxybenzamide] the same measures were 0.1 to 1 µM and 5 to 15 µM.
For `O=C(NO)c1ccc(CNC2=Nc3ccccc3Oc3ccccc32)cc1` [(E)-4-((dibenzo[b,f][1,4]oxazepin-11-ylamino)methyl)-N-hydroxybenzamide] the same measures were below 0.05 µM and below 1 µM.
For `O=C(NO)c1ccc(C2=Nc3ccccc3Oc3ccccc32)c(F)c1` [(E)-4-(dibenzo[b,f][1,4]oxazepin-11-yl)-3-fluoro-N-hydroxybenzamide] the same measures were 1 to 10 µM and 5 to 15 µM.
With `O=C(NO)c1ccc(C2=Nc3ccccc3Oc3ccccc32)o1` [(E)-5-(dibenzo[b,f][1,4]oxazepin-11-yl)-N-hydroxyfuran-2-carboxamide], the values for the IC50 in experiment [1] (Table 8) and in experiment [2] (setting [4]) were 1 to 10 µM and above 15 µM, respectively.
In the case of `O=C(NO)c1ccc(C2=Nc3ccccc3Oc3ccccc32)s1` [(E)-5-(dibenzo[b,f][1,4]oxazepin-11-yl)-N-hydroxythiophene-2-carboxamide], the concentration for half-maximal inhibition (IC50) in experiment [1] (Table 8) is below 0.05 µM; in experiment [2] (setting [4]), 1 to 5 µM.
The like results for `O=C(NO)c1ccc(C2=Nc3ccccc3Oc3ccccc32)nc1` [(E)-6-(dibenzo[b,f][1,4]oxazepin-11-yl)-N-hydroxynicotinamide] were, in that order, 0.1 to 1 µM and 5 to 15 µM.
As for `O=C(/C=C/c1ccc(CN2C(=O)CN=C(c3ccccc3)c3ccccc32)cc1)NO` [(E)-N-hydroxy-3-(4-(((Z)-2-oxo-5-phenyl-2,3-dihydro-1H-benzo[e][1,4]diazepin-1-yl)methyl)phenyl)acrylamide], the IC50 is 0.05 to 0.1 µM in experiment [1] (Table 10) and 1 to 5 µM in experiment [2] (setting [5]).
The like results for `CN1C(=O)CN=C(c2ccccc2)c2ccc(/C=C/C(=O)NO)cc21` [(E)-N-hydroxy-3-((Z)-1-methyl-2-oxo-5-phenyl-2,3-dihydro-1H-benzo[e][1,4]diazepin-8-yl)acrylamide] were, in that order, 0.1 to 1 µM and 1 to 5 µM.
The like results for `O=C(/C=C/c1ccc2c(c1)NC(=O)CN=C2c1ccccc1)NO` [(E)-N-hydroxy-3-((Z)-2-oxo-5-phenyl-2,3-dihydro-1H-benzo[e][1,4]diazepin-8-yl)acrylamide] were, in that order, 0.05 to 0.1 µM and 1 to 5 µM.
As for `O=C(NO)c1ccc(/C=C/CN2C(=O)c3ccccc3Oc3ccccc32)cc1` [(E)-N-hydroxy-4-(3-(11-oxodibenzo[b,f][1,4]oxazepin-10(11H)-yl)prop-1-enyl)benzamide], the IC50 in experiment [1] (Table 10) is 0.05 to 0.1 µM; in experiment [2] (setting [3]) it was below 1 µM.
With `O=C(NO)c1ccc(-c2ccc3c(c2)C(N2CCOCC2)=Nc2ccccc2O3)cc1` [(E)-N-hydroxy-4-(11-morpholinodibenzo[b,f][1,4]oxazepin-2-yl)benzamide], the values for the IC50 in experiment [1] (Table 8) and in experiment [2] (setting [4]) were below 0.05 µM and above 15 µM, respectively.
As to `O=C(Cc1ccc(CN2c3ccccc3C=Cc3ccccc32)cc1)NO` [(Z)-2-(4-((5H-dibenzo[b,f]azepin-5-yl)methyl)phenyl)-N-hydroxyacetamide], the IC50 in experiment [1] (Table 10) was 0.1 to 1 µM; in experiment [2] (setting [3]), 5 to 15 µM.
In the case of `O=C(NO)c1cccc(C2=Nc3ccccc3Oc3ccccc32)c1` [(Z)-3-(dibenzo[b,f][1,4]oxazepin-11-yl)-N-hydroxybenzamide], the IC50 in experiment [1] (Table 8) was 0.1 to 1 µM; in experiment [2] (setting [4]), above 15 µM.
Turning to `O=C(NO)c1ccc(C2=Nc3ccccc3Oc3cccc(F)c32)cc1` [(Z)-4-(1-fluorodibenzo[b,f][1,4]oxazepin-11-yl)-N-hydroxybenzamide], the IC50 in experiment [1] (Table 8) was below 0.05 µM; in experiment [2] (setting [4]), 5 to 15 µM.
`O=C(NO)c1ccc(C2=Nc3ccccc3Oc3ccc(Cl)cc32)cc1` [(Z)-4-(2-chlorodibenzo[b,f][1,4]oxazepin-11-yl)-N-hydroxybenzamide]: the IC50 is below 0.05 µM in experiment [1] (Table 8) and 5 to 15 µM in experiment [2] (setting [4]).
The like results for `COc1cc(F)cc2c1Oc1ccccc1N=C2c1ccc(C(=O)NO)cc1` [(Z)-4-(2-fluoro-4-methoxydibenzo[b,f][1,4]oxazepin-11-yl)-N-hydroxybenzamide] were, in that order, below 0.05 µM and 1 to 5 µM.
Regarding `O=C(NO)c1ccc(C2=Nc3ccccc3Oc3ccc(F)cc32)cc1` [(Z)-4-(2-fluorodibenzo[b,f][1,4]oxazepin-11-yl)-N-hydroxybenzamide], the IC50 in experiment [1] (Table 8) was below 0.05 µM; in experiment [2] (setting [4]) it was 1 to 5 µM.
For `O=C(NO)c1ccc(C2=Nc3ccccc3Oc3cc(F)ccc32)cc1` [(Z)-4-(3-fluorodibenzo[b,f][1,4]oxazepin-11-yl)-N-hydroxybenzamide] the same measures were 0.1 to 1 µM and above 15 µM.
Consider `O=C(NO)c1ccc(C2=Nc3ccccc3Oc3c(F)cccc32)cc1` [(Z)-4-(4-fluorodibenzo[b,f][1,4]oxazepin-11-yl)-N-hydroxybenzamide], for which the values for the IC50 in experiment [1] (Table 8) and in experiment [2] (setting [4]) were 0.1 to 1 µM and 5 to 15 µM, respectively.
For `O=C(NO)c1ccc(C2=Nc3ccccc3N(C3CC3)c3ccc(F)cc32)cc1` [(Z)-4-(5-cyclopropyl-2-fluoro-5H-dibenzo[b,e][1,4]diazepin-11-yl)-N-hydroxybenzamide] the same measures were 0.05 to 0.1 µM and 1 to 5 µM.
The like results for `O=C(NO)c1ccc(C2=Nc3ccccc3N(C3CC3)c3ccccc32)cc1` [(Z)-4-(5-cyclopropyl-5H-dibenzo[b,e][1,4]diazepin-11-yl)-N-hydroxybenzamide] were, in that order, 0.1 to 1 µM and 1 to 5 µM.
The like results for `CCN1c2ccccc2N=C(c2ccc(C(=O)NO)cc2)c2ccccc21` [(Z)-4-(5-ethyl-5H-dibenzo[b,e][1,4]diazepin-11-yl)-N-hydroxybenzamide] were, in that order, 0.05 to 0.1 µM and 1 to 5 µM.
As for `O=C(NO)c1ccc(C2=Nc3ccccc3Cn3cccc32)cc1` [(Z)-4-(5H-benzo[e]pyrrolo[1,2-a][1,4]diazepin-11-yl)-N-hydroxybenzamide], the IC50 in experiment [1] (Table 8) is below 0.05 µM; in experiment [2] (setting [4]), 1 to 5 µM.
The like results for `O=C(NO)c1ccc(C2=Nc3ccccc3Nc3ccccc32)cc1` [(Z)-4-(5H-dibenzo[b,e][1,4]diazepin-11-yl)-N-hydroxybenzamide] were, in that order, 0.1 to 1 µM and 1 to 5 µM.
On to `O=C(CCCN1c2ccccc2C=Cc2ccccc21)NO` [(Z)-4-(5H-dibenzo[b,f]azepin-5-yl)-N-hydroxybutanamide], for which the IC50 in experiment [1] (Table 10) lay in the range of 1 to 10 µM; in experiment [2] (setting [3]), 5 to 15 µM.
As to `O=C(NO)c1ccc(C2=Nc3cccc(F)c3Oc3ccccc32)cc1` [(Z)-4-(6-fluorodibenzo[b,f][1,4]oxazepin-11-yl)-N-hydroxybenzamide], the IC50 in experiment [1] (Table 8) was 0.05 to 0.1 µM; in experiment [2] (setting [4]), 5 to 15 µM.
In the case of `O=C(NO)c1ccc(C2=Nc3ccc(Cl)cc3Oc3ccccc32)cc1` [(Z)-4-(7-chlorodibenzo[b,f][1,4]oxazepin-11-yl)-N-hydroxybenzamide], the IC50 was 0.1 to 1 µM in experiment [1] (Table 8) and 5 to 15 µM in experiment [2] (setting [4]).
